Source: patent publication US5459126A, “Method for decreasing calcium uptake by cells using selected polycations” (California Institute of Technology, priority 1993, dated 1995)
“Also recorded” adds a separate entry of the source.

Legend:
Assay type in all cases: cell-based
[1] = test system: neonatal rat cardiomyocytes; assay: 45Ca uptake by cultured cardiomyocytes exposed to hydrogen peroxide (free radical attack), on-line isotopic technique
Description: Protamine is a strong polycationic polypeptide used extensively for heparin reversal after cardiopulmonary bypass. The drug is known to be negatively inotropic. The neonatal rat cardiomyocytes were cultured according to the procedure described by Frank et al.(13).
Ca fluxes were measured by an on-line isotopic technique (13). The myocytes were cultured onto scintillant-containing discs which were mounted in a flow cell so that the cells were in direct contact with perfusate. The flow cell was placed between two opposing […] tubes. Cell-associated Ca was then recorded in counts per minute. ^45 Ca^2+ is a low energy beta-emitter. The radioactivity contained within the perfusate is counted with very low efficiency (<5%) whereas that within the cells is counted with an efficiency of 39%. In all of the examples the cells were initially perfused with non isotopic solution to remove any debris. Perfusion with ^45 Ca^2+ containing solution was then commenced at 10 ml/minute and continued until the cells were labelled to asymptote. […] The flow cell was then drained and refilled with a solution containing hydrogen peroxide. The cells were then incubated for 60 minutes with continuous recording of ^45 Ca labeling (no flow) prior to washout with non-isotopic perfusate.
After asymptotic labeling with ^45 Ca, the cells were perfused with a solution containing protamine sulfate at varying concentrations. […] The flow cell was then drained and refilled with a solution containing 50 μM H2 O2 and protamine. The procedure was repeated with protamine in varying concentrations: 1 μM (n=4); 5 μM (n=6) and 50 μM (n=6).
(§1) At the end of each experiment the discs were removed from the flow cell, allowed to dry and the cells were scraped onto a pre-weighed piece of filter paper. This was placed in an oven (>100° C.) overnight and then weighed, permitting determination of the cellular dry weight. The specific activity of each isotopic solution was measured in a […] (Beckman Instruments) and cell-associated Ca was expressed in mmoles/kg dry cellular weight. The cell cultures were maintained at 37° C.

[2] = test system: neonatal rat cardiomyocytes; assay: 45Ca uptake by metabolically inhibited cardiomyocytes (iodoacetic acid + 2-deoxyglucose); conditions: for inhibition of calcium uptake: iodoacetic acid and 2-deoxyglucose
Description: Ca fluxes were measured by an on-line isotopic technique (13). The myocytes were cultured onto scintillant-containing discs which were mounted in a flow cell so that the cells were in direct contact with perfusate. The flow cell was placed between two opposing […] tubes. Cell-associated Ca was then recorded in counts per minute. ^45 Ca^2+ is a low energy beta-emitter. The radioactivity contained within the perfusate is counted with very low efficiency (<5%) whereas that within the cells is counted with an efficiency of 39%. In all of the examples the cells were initially perfused with non isotopic solution to remove any debris. Perfusion with ^45 Ca^2+ containing solution was then commenced at 10 ml/minute and continued until the cells were labelled to asymptote. This normally took 25-30 minutes. The flow cell was then drained and refilled with a solution containing hydrogen peroxide. The cells were then incubated for 60 minutes with continuous recording of ^45 Ca labeling (no flow) prior to washout with non-isotopic perfusate.
as §1
Exposure of neonatal rat cardiomycytes to 0.05 mM iodoacetic acid (IAA), as a glycolytic inhibitor, and 0.5 mM 2-deoxyglucose (2-DOG), as a non-metabolizable substrate, produces a graded depletion in intracellular ATP and induces a significant Ca leak. In the following example involving metabolic inhibition, these two compounds were included in the incubation medium. 2-DOG was added directly and IAA was added from a 1 M stock solution, dissolved in water. The concentration in the culture media was 0.5 mM for 2-DOG and 0.05 mM for IAA.

mammalian cells = assay: calcium uptake inhibition in cell culture, noxious stimulus not specified
[3] = calcium leak caused by hydrogen peroxide
[4] = calcium leak caused by metabolic inhibition

hexamedronium bromide [Polybrene]
inhibition of calcium leak [1, 3]: inhibited the calcium leak | threshold concentration above which inhibition was significant [1, 3]: 25 µM | effect on calcium uptake ([1]; polybrene 25 μM, free radical attack (FIG. 4)): prevention of calcium uptake | inhibition of calcium leak [2, 4]: inhibited the calcium leak | threshold concentration above which inhibition was significant [2, 4]: 25 µM | effect on calcium uptake ([2]; polybrene 25 μM, metabolically inhibited cells (FIG. 5)): prevention of calcium uptake

polymyxin B sulfate [PXB]
inhibition of calcium uptake ([2]; 100 μM): substantially inhibited

protamine
effect on Ca overload ([1]; protamine 1 μM, 50 μM H2O2, 60 min incubation): no effect | effect on Ca overload / calcium uptake ([1]; protamine 5 μM, 50 μM H2O2, 60 min incubation): prevention of calcium uptake; also recorded: completely prevented the Ca overload | effect on Ca overload ([1]; protamine concentration above 5 μM (50 μM tested), 50 μM H2O2): no additional effect | effect of protamine on Ca overload after neutralizing its positive charge with heparin ([1]; protamine plus heparin, H2O2): completely inhibited | Ca uptake on perfusion with the agent alone ([1]; protamine sulfate at varying concentrations, after asymptotic 45Ca labeling, before H2O2): did not significantly alter Ca uptake | effect on calcium uptake ([2]; concentrations below 5 μM, 0.05 mM IAA + 0.5 mM 2-DOG): did not exert a significant effect | effect on calcium uptake ([2]; concentrations of 5 μM and higher, 0.05 mM IAA + 0.5 mM 2-DOG): prevention of calcium uptake; also recorded: dramatic drop in calcium uptake | effect on calcium overload (mammalian cells; cell culture concentrations of 5 μM and above): completely prevent calcium overload

Gentamicin
amount required to obtain any significant level of calcium uptake inhibition (mammalian cells): 1.5 mM

CCCCCCCCCCCC[N+](C)(C)C.[Br-] [DDTMA, dodecyltrimethylammonium bromide]
inhibition of calcium uptake ([2]; 50 μM): significant inhibition of calcium uptake
